Reference: the supplement of paper PMC10307832

Legend:
Experiment in all cases: relative viability (nuclei count vs DMSO), 5 days (fraction); higher = more cells survive
[1] = system: EMC-BAC-2
Outline: (§1)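 Relative viability was taken as the ratio of nuclei in treated wells to nuclei in vehicle wells. Lung cancer cell lines in 1536-well plates received compounds by pin tool one day after seeding, either one drug alone or a fixed anchor-drug dose plus five library-drug doses (not always all listed) in √10 steps. Nuclei were counted on 4× images after 5 days of treatment, and values are medians of duplicate plates.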

[2] = system: NCI-H2085
Outline: as §1

[3] = system: NCI-H2023
Outline: as §1

[4] = system: UMC-11
Outline: as §1

[5] = system: CAL-12T
Outline: as §1

[6] = system: NCI-H1993
Outline: as §1

[7] = system: HCC-15
Outline: as §1

[8] = system: NCI-H3122
Outline: as §1

[9] = system: EPLC-272H
Outline: as §1

[10] = system: NCI-H2126
Outline: as §1

[11] = system: COR-L 105
Outline: as §1

[12] = system: NCI-H358
Outline: as §1

[13] = system: HOP-62
Outline: as §1

[14] = system: NCI-H1666
Outline: as §1

[15] = system: NCI-H1975
Outline: as §1

[16] = system: LXF-289
Outline: as §1

[17] = system: HCC-78
Outline: as §1

[18] = system: NCI-H441
Outline: as §1

[19] = system: NCI-H322M
Outline: as §1

[20] = system: NCI-H1915
Outline: as §1

[21] = system: ChaGo-K-1
Outline: as §1

[22] = system: NCI-H1755
Outline: as §1

SMILES: CC1(C)CCC(c2ccc(Cl)cc2)=C(CN2CCN(c3ccc(C(=O)NS(=O)(=O)c4ccc(N[C@H](CCN5CCOCC5)CSc5ccccc5)c(S(=O)(=O)C(F)(F)F)c4)cc3)CC2)C1 [Navitoclax] + Nc1nc2[nH]cc(CCc3ccc(C(=O)N[C@@H](CCC(=O)O)C(=O)O)cc3)c2c(=O)[nH]1 [Pemetrexed] (partner 0.2 µM)
- relative viability ([1]; first compound 0.005 µM): 0.433
- relative viability ([1]; first compound 0.01581 µM): 0.437
- relative viability ([1]; first compound 0.05 µM): 0.408
- relative viability ([1]; first compound 0.1581 µM): 0.423
- relative viability ([1]; first compound 0.5 µM): 0.419
- relative viability ([2]; first compound 0.005 µM): 0.812
- relative viability ([2]; first compound 0.01581 µM): 1.2
- relative viability ([2]; first compound 0.05 µM): 0.852
- relative viability ([2]; first compound 0.1581 µM): 0.931
- relative viability ([2]; first compound 0.5 µM): 0.894
- relative viability ([3]; first compound 0.005 µM): 0.229
- relative viability ([3]; first compound 0.01581 µM): 0.236
- relative viability ([3]; first compound 0.05 µM): 0.258
- relative viability ([3]; first compound 0.1581 µM): 0.214
- relative viability ([3]; first compound 0.5 µM): 0.201
- relative viability ([4]; first compound 0.005 µM): 0.79
- relative viability ([4]; first compound 0.01581 µM): 0.822
- relative viability ([4]; first compound 0.05 µM): 0.821
- relative viability ([4]; first compound 0.1581 µM): 0.759
- relative viability ([4]; first compound 0.5 µM): 0.444
- relative viability ([5]; first compound 0.005 µM): 1.23
- relative viability ([5]; first compound 0.01581 µM): 1.34
- relative viability ([5]; first compound 0.05 µM): 1.23
- relative viability ([5]; first compound 0.1581 µM): 1.23
- relative viability ([5]; first compound 0.5 µM): 1.25
- relative viability ([6]; first compound 0.005 µM): 0.616
- relative viability ([6]; first compound 0.01581 µM): 0.701
- relative viability ([6]; first compound 0.05 µM): 0.474
- relative viability ([6]; first compound 0.1581 µM): 0.653
- relative viability ([6]; first compound 0.5 µM): 0.677
- relative viability ([7]; first compound 0.005 µM): 0.227
- relative viability ([7]; first compound 0.01581 µM): 0.26
- relative viability ([7]; first compound 0.05 µM): 0.218
- relative viability ([7]; first compound 0.1581 µM): 0.228
- relative viability ([7]; first compound 0.5 µM): 0.229
- relative viability ([8]; first compound 0.005 µM): 0.207
- relative viability ([8]; first compound 0.01581 µM): 0.176
- relative viability ([8]; first compound 0.05 µM): 0.211
- relative viability ([8]; first compound 0.1581 µM): 0.183
- relative viability ([8]; first compound 0.5 µM): 0.209
- relative viability ([9]; first compound 0.005 µM): 0.312
- relative viability ([9]; first compound 0.01581 µM): 0.268
- relative viability ([9]; first compound 0.05 µM): 0.347
- relative viability ([9]; first compound 0.1581 µM): 0.354
- relative viability ([9]; first compound 0.5 µM): 0.343
- relative viability ([10]; first compound 0.005 µM): 0.667
- relative viability ([10]; first compound 0.01581 µM): 0.696
- relative viability ([10]; first compound 0.05 µM): 0.671
- relative viability ([10]; first compound 0.1581 µM): 0.602
- relative viability ([10]; first compound 0.5 µM): 0.624
- relative viability ([11]; first compound 0.005 µM): 0.979
- relative viability ([11]; first compound 0.01581 µM): 1.35
- relative viability ([11]; first compound 0.05 µM): 0.921
- relative viability ([11]; first compound 0.1581 µM): 1.13
- relative viability ([11]; first compound 0.5 µM): 1.17
- relative viability ([12]; first compound 0.005 µM): 0.17
- relative viability ([12]; first compound 0.01581 µM): 0.173
- relative viability ([12]; first compound 0.05 µM): 0.167
- relative viability ([12]; first compound 0.1581 µM): 0.165
- relative viability ([12]; first compound 0.5 µM): 0.187
- relative viability ([13]; first compound 0.005 µM): 0.326
- relative viability ([13]; first compound 0.01581 µM): 0.299
- relative viability ([13]; first compound 0.05 µM): 0.323
- relative viability ([13]; first compound 0.1581 µM): 0.27
- relative viability ([13]; first compound 0.5 µM): 0.27
- relative viability ([14]; first compound 0.005 µM): 0.867
- relative viability ([14]; first compound 0.01581 µM): 0.964
- relative viability ([14]; first compound 0.05 µM): 0.836
- relative viability ([14]; first compound 0.1581 µM): 0.831
- relative viability ([14]; first compound 0.5 µM): 0.966
- relative viability ([15]; first compound 0.005 µM): 0.292
- relative viability ([15]; first compound 0.01581 µM): 0.312
- relative viability ([15]; first compound 0.05 µM): 0.343
- relative viability ([15]; first compound 0.1581 µM): 0.301
- relative viability ([15]; first compound 0.5 µM): 0.299
- relative viability ([16]; first compound 0.005 µM): 0.85
- relative viability ([16]; first compound 0.01581 µM): 0.914
- relative viability ([16]; first compound 0.05 µM): 0.865
- relative viability ([16]; first compound 0.1581 µM): 0.926
- relative viability ([16]; first compound 0.5 µM): 0.852
- relative viability ([17]; first compound 0.005 µM): 0.867
- relative viability ([17]; first compound 0.01581 µM): 0.878
- relative viability ([17]; first compound 0.05 µM): 0.921
- relative viability ([17]; first compound 0.1581 µM): 0.875
- relative viability ([17]; first compound 0.5 µM): 0.777
- relative viability ([18]; first compound 0.005 µM): 0.238
- relative viability ([18]; first compound 0.01581 µM): 0.24
- relative viability ([18]; first compound 0.05 µM): 0.258
- relative viability ([18]; first compound 0.1581 µM): 0.232
- relative viability ([18]; first compound 0.5 µM): 0.296
- relative viability ([19]; first compound 0.005 µM): 0.661
- relative viability ([19]; first compound 0.01581 µM): 0.651
- relative viability ([19]; first compound 0.05 µM): 0.65
- relative viability ([19]; first compound 0.1581 µM): 0.651
- relative viability ([19]; first compound 0.5 µM): 0.649
- relative viability ([20]; first compound 0.005 µM): 0.495
- relative viability ([20]; first compound 0.01581 µM): 0.504
- relative viability ([20]; first compound 0.05 µM): 0.571
- relative viability ([20]; first compound 0.1581 µM): 0.439
- relative viability ([20]; first compound 0.5 µM): 0.401
- relative viability ([21]; first compound 0.005 µM): 0.258
- relative viability ([21]; first compound 0.01581 µM): 0.26
- relative viability ([21]; first compound 0.05 µM): 0.25
- relative viability ([21]; first compound 0.1581 µM): 0.268
- relative viability ([21]; first compound 0.5 µM): 0.265
- relative viability ([22]; first compound 0.005 µM): 0.371
- relative viability ([22]; first compound 0.01581 µM): 0.419
- relative viability ([22]; first compound 0.05 µM): 0.426
- relative viability ([22]; first compound 0.1581 µM): 0.351
- relative viability ([22]; first compound 0.5 µM): 0.433
